Source: patent US4866176A, “8-Piperazinyl-1,7-naphthyridine derivative having pharmaceutical activity” (SS Pharmaceutical Co., Ltd., priority 1986, dated 1989)

Legend:
heart rate = experiment: Antiarrhythmic effect (chloroform, mice, ip); type: in vivo; settings: positive = 1-200 per minute heart rate
Protocol: Mice, age 5 weeks and weighing approximately 25 g, 6 of which consisted one group, were given a test compound which was dissolved in a 0.01 N-0.1 N hydrochloric acid solution (ip). Ten (10) minutes thereafter the mice were put into a sealed container which was filled with chloroform, their chests were incised promptly after confirming the respiratory arrest, and the heart rate was counted. Those with a 1-200 per minute heart rate were judged as positive in their antiarrhythmic effect.

Edema = experiment: Antiinflammatory effect (carragenin-induced edema of rat foot, oral); type: in vivo, Wister rats; settings: 30 mg/kg, carragenin 60 min after dosing, foot volume 3 hours thereafter
Protocol: Wister rats (age 6 weeks), 5 of which consisted one group, were fasted for 18 hours and orally given a test compound which was dissolved or suspended in a 0.5% sodium carboxymethylcellulose (CMC-Na). Sixty (60) minutes after administration of the tested compound each rat was subcutaneously given 0.1 ml of 1% carragenin physiological saline at its right plantar, and 3 hours thereafter the volume of its foot (A) was measured. The rate of edematization was determined by the formula [(A-B)/B]×100, in which (A) is the thus-obtained volume of animals foot and (B) denots the corresponding volume before administration of the compound (B).
The rate of edematization of controls which were subcutaneously given 0.1 ml of 1% carragenin physiological saline at their right plantars was also determined in the same manner. The rate of edema inhibition was determined on each of the tested compounds according to the following equation: [formula]
The results are shown in Table 1, in which the compound numbers correspond those of Examples appearing hereinafter in this specification.

[1] = test system: right and left atrium muscles; experiment: Cardiotonic effect (positive inotropic effect on isolated guinea pig atrium muscles); parameters: species or system Hartley male guinea pigs; settings: Cavia porcellus, 10^-5 g/ml, 32° C, maximum change of contractive force, read-out: Positive Inotropic Effect (% per the value obtained on controls)
Protocol: Hearts of Hartley male guinea pigs, weighing 500-800 g, were taken out and their atrium muscles were enucleated in Krebs - hydrogencarbonate solution, to serve the same as samples for the test. The both ends of right and left atrium muscles with a spontaneous beat were fixed by means of Serres fines, and suspended, with their upper and lower portions being fixed, in a bath containing 20 ml of Krebs - hydrogencarbonate solution which was aerated by 95% O2 +5% CO2 at 32° C. Then contractive forces of the spontaneous beat were isometrically measured. After the samples were stabilized, the test compound dissolved in 1 N hydrochloric acid solution and diluted by physiological saline to a concentration of 10^-5 g/ml was charged into the bath. Maximum changes (%) of the contractive force after charging the test compound per the value obtained immediately before the charge were determined. The values obtained, which respresent a positive inotropic effect, were made a standard for the cardiotonic effect.

Structure (SMILES): CC(=O)Nc1cc2cccnc2c(N2CCNCC2)n1 [Compound No. 1, 6-acetamido-8-(1-piperazinyl)-1,7-naphthyridine]
- Animals exhibited positive antiarrhythmic/Animals tested (heart rate; 12.5 mg/kg): 5/6
- Animals exhibited positive antiarrhythmic/Animals tested (heart rate; 25.0 mg/kg): 4/6
- Edema Inhibition Rate (%) (Edema): 64.8%

Structure (SMILES): CC(=O)Nc1cc2cccnc2c(N2CCN(C=O)CC2)n1 [compound 2]
- activation at 10 µg/mL [1]: 35.8%
- Edema Inhibition Rate (%) (Edema): 35.0%

Structure (SMILES): CC(=O)Nc1cc2cccnc2c(N2CCN(C(C)=O)CC2)n1 [compound 3]
- activation at 10 µg/mL [1]: 35.6%

Structure (SMILES): CC(=O)Nc1cc2cccnc2c(N2CCN(C(=O)c3ccccc3)CC2)n1 [compound 4]
- Animals exhibited positive antiarrhythmic/Animals tested (heart rate; 12.5 mg/kg): 2/6
- Animals exhibited positive antiarrhythmic/Animals tested (heart rate; 25.0 mg/kg): 4/6

Structure (SMILES): CC(=O)Nc1cc2cccnc2c(N2CCN(C(=O)c3ccc([N+](=O)[O-])cc3)CC2)n1 [compound 8, 6-acetamido-8-[4-(p-nitrobenzoyl)-1-piperazinyl]-1,7-naphthyridine]
- Edema Inhibition Rate (%) (Edema): 28.6%

Structure (SMILES): COc1ccc(C(=O)N2CCN(c3nc(NC(C)=O)cc4cccnc34)CC2)cc1 [compound 9]
- Edema Inhibition Rate (%) (Edema): 30.4%

Structure (SMILES): COc1ccc(C(=O)N2CCN(c3nc(NC(C)=O)cc4cccnc34)CC2)cc1OC [compound 10]
- activation at 10 µg/mL [1]: 16.7%

Structure (SMILES): COc1cc(C(=O)N2CCN(c3nc(NC(C)=O)cc4cccnc34)CC2)cc(OC)c1OC [compound 11]
- Animals exhibited positive antiarrhythmic/Animals tested (heart rate; 12.5 mg/kg): 1/6
- Animals exhibited positive antiarrhythmic/Animals tested (heart rate; 25.0 mg/kg): 6/6

Structure (SMILES): CC(=O)Nc1cc2cccnc2c(N2CCN(c3cccc(Cl)c3)CC2)n1 [compound 15]
- Animals exhibited positive antiarrhythmic/Animals tested (heart rate; 12.5 mg/kg): 4/6
- Animals exhibited positive antiarrhythmic/Animals tested (heart rate; 25.0 mg/kg): 4/6

Structure (SMILES): CC(=O)Nc1cc2cccnc2c(N2CCN(c3ccc(F)cc3)CC2)n1 [compound 17]
- Animals exhibited positive antiarrhythmic/Animals tested (heart rate; 12.5 mg/kg): 3/6
- Animals exhibited positive antiarrhythmic/Animals tested (heart rate; 25.0 mg/kg): 5/6

Structure (SMILES): CC(=O)Nc1cc2cccnc2c(N2CCN(Cc3ccccc3)CC2)n1 [compound 22]
- activation at 10 µg/mL [1]: 16.7%
- Edema Inhibition Rate (%) (Edema): 57.1%
